# Source: patent US8703438B2, “Ligand binding stabilization method for drug target identification” (The Regents of the University of California, priority 2008, dated 2014)
# Tests used:
# [1] = system: eIF4A-dependent translation in HEK 293 cells; experiment: In vivo translation assay with bicistronic dual-luciferase reporters; assay type: cell-based, human; conditions: HEK293, Dual-Glo
# Excerpt: FIG. 4A: Chemical structure of resveratrol. FIG. 4B: Yeast cell lysates and human HeLa cell lysates were each treated with resveratrol in vitro followed by thermolysin digestion and silver staining. Protected bands of similar size were detected. FIG. 4C: Resveratrol protects TAP-tagged eIF4A, but not an unrelated Htb2, protein from proteolysis. Arrow: protein protected from subtilisin proteolysis (H. sapiens (SEQ ID NO:1), M. musculus (SEQ ID NO:2), X. laevis (SEQ ID NO:3), D. melanogaster (SEQ ID NO:4), C. elegans (SEQ ID NO:5), S. purpuratus (SEQ ID NO:6), C. reinhardtii (SEQ ID NO:7), A. thaliana (SEQ ID NO:8), H. andersenii (SEQ ID NO:9), S. cerevisiae (SEQ ID NO:10)). FIG. 4D: Resveratrol inhibits eIF4A-dependent translation in HEK 293 cells as assayed by bicistronic translation reporters. […] FIG. 4E: eIF4A is required for longevity in resveratrol-treated animals. Resveratrol (50 μM) lengthens the lifespan of wild-type N2 worms fed control (gfp) RNAi (green), but not worms fed eIF4A (inf-1) RNAi (red) or daf-16 RNAi (blue). gfp(RNAi), mVeh=19 (n=74), mRSV=20 (n=78), P=0.0006***; inf-1(RNAi), mVeh=26 (n=76), mRSV=24 (n=79), P=0.4687; daf-16(RNAi), mVeh=17 (n=78), mRSV=17 (n=76), P=0.3305. m, mean lifespan (days of adulthood); n, number of animals tested.
# The molecular mechanisms underlying resveratrol's lifespan effect have been controversial (Howitz et al. (2003) Nature 425: 191-196; Kaeberlein et al. (2005) J Biol Chem 280: 17038-17045), and whether Sir2 serves as a direct target for resveratrol is an interesting problem that is being pursued. […]
# HEK293 cells in DMEM+10% FBS were pre-treated with 50 μM resveratrol for 1 hr, and transfected with bicistronic translation reporter plasmids using LipoD293 DNA in vitro transfection reagent (SignaGen). […] Reporter activity was measured 33 hr post-transfection using the Dual-Glo luciferase assay system (Promega) with an Analyst HT plate reader (Molecular Devices). […]
# [2] = Precipitation in yeast culture medium; assay type: physicochemical; conditions: final concentration ˜1 mM
# Excerpt: For cytotoxic and cytostatic small molecules, deletion mutants in their target often would have increased sensitivity to the drug (and overexpression could decrease sensitivity). Indeed, this is the basis for the elegant haploinsufficiency profiling (HIP) strategy (Giaever et al. (1999) Nat Genet. 21: 278-283). However, an inherent limitation of this type of fitness-based methods is that they are applicable only to drugs that affect cell growth/viability, i.e., cytotoxic or cytostatic drugs. […] A key advantage of DARTS is that it is independent of the drug's biological phenotype, and thus is not limited to the studies of cytotoxic/cytostatic drugs or drugs that induce transcriptional or morphological changes which have been the limitation of previous methods.
# [3] = system: proteins of S. cerevisiae BY4742 cell lysates; experiment: DARTS with yeast cell lysates incubated in vitro with resveratrol, mass spectrometry of protected bands; assay type: binding; conditions: 1 mM resveratrol
# Method: For DARTS using yeast cell lysates incubated in vitro with resveratrol (FIG. 4B), S. cerevisiae BY4742 cells were used.
# Gel bands were cut out and prepared for mass spec analysis with trypsin digestion as described in SI. Peptides were analyzed by LC/MS/MS on a Thermo LTQ-Orbitrap mass spectrometer with an Eksigent LC pump. For quantitative comparison of protein and peptide abundances, MS spectra were analyzed using the differential workflow of Rosetta Elucidator (Rosetta Inpharmatics) (54). Annotation was performed using PeptideTeller and ProteinTeller (see SI).
# Proteins were initially identified by searching the spectra against the human International Protein Index database (version 3.46) and the S. cerevisiae Swissprot database (May 2008) using the SEQUEST algorithm (Eng et al. (1994) J Am Soc Mass Spectrom 5: 976-989) integrated into the Bioworks software package. Each peptide met the following criteria: XCorr ≧2 (+1), ≧3 (+2), ≧4 (+3), ≧5 (+4), and DeltaCN>0.1. For quantitative comparison of protein and peptide abundances, MS spectra were analyzed using the differential workflow of the Rosetta Elucidator software system (Rosetta Inpharmatics) (Neubert et al. (2008) J Proteome Res 7: 2270-2279). Annotation was performed using PeptideTeller and ProteinTeller with a minimum probability of 0.99 and predicted error of 0.0. Protein ratio data were generated with a P-value cutoff of 0.01 for all proteins with a peptide number >1. Intensity scaling was performed against the mean of feature signals, with 10% of outliers removed from the baseline dataset. Similar results were obtained in analysis without intensity scaling (FIG. 9A).
# For the DARTS experiment using yeast cell lysates incubated in vitro with resveratrol, BY4742 cells were suspended in yeast extraction buffer (Grant et al. (1999) Meth. Mol Biol 119: 311-317) [(40 mM HEPES/KOH pH 7.5, 350 mM NaCl, 0.5 mM DTT, 10% glycerol, 0.1% Tween-20) supplemented with Roche complete protease inhibitor cocktail (Roche Diagnostics, Indianapolis, Ind.)]. Cell pellets were broken with glass beads for 2×40 s at 4° C. in a FastPrep-24 (MP Biomedicals, Solon, Ohio). Whole cell lysates were collected after centrifugation (1500 rpm, 10 min). Lysates were incubated with ethanol control or 1 mM resveratrol for 30 min at room temperature. Samples were then divided into two aliquots, which underwent proteolysis with thermolysin or mock proteolysis.
structure (smiles),measurement,setting,value
Oc1ccc(C=Cc2cc(O)cc(O)c2)cc1 [resveratrol],translation from the eIF4A-independent HCV IRES,[1],unaffected
same,EMCV IRES-mediated translation,[1]; requires eIF4A,inhibited in a dose-dependent manner
same,cap-dependent translation,[1]; requires eIF4A,inhibited in a dose-dependent manner
same,behaviour in culture medium,[2],precipitated out of the culture medium
same,"Fold Change, 40S ribosomal protein S12",[3]; Lower band,2.07
same,"Fold Change, 40S ribosomal protein S15",[3]; Lower band,3.677
same,"Fold Change, 40S ribosomal protein S16",[3]; Lower band,2.906
same,"Fold Change, 40S ribosomal protein S18",[3]; Lower band,2.412
same,"Fold Change, 40S ribosomal protein S19",[3]; Lower band,1.965
same,"Fold Change, 40S ribosomal protein S24",[3]; Lower band,1.481
same,"Fold Change, 40S ribosomal protein S26-B",[3]; Lower band,2.429
same,"Fold Change, 60S ribosomal protein L14-A",[3]; Lower band,1.614
same,"Fold Change, 60S ribosomal protein L25",[3]; Lower band,3.564
same,"Fold Change, 60S ribosomal protein L26-A",[3]; Lower band,9.181
same,"Fold Change, 60S ribosomal protein L26-B",[3]; Lower band,11.107
same,"Fold Change, 60S ribosomal protein L34",[3]; Lower band,2.383
same,"Fold Change, 60S ribosomal protein L35",[3]; Lower band,3.774
same,"Fold Change, Histone H2A",[3]; Lower band,3.002
same,"Fold Change, Histone H2B",[3]; Lower band,2.229
same,"Fold Change, Ornithine aminotransferase",[3]; Lower band,2.531
same,"Fold Change, 40S ribosomal protein S23",[3]; Upper band,4.84
same,"Fold Change, 40S ribosomal protein S26",[3]; Upper band,4.701
same,"Fold Change, 60S ribosomal protein L21-A",[3]; Upper band,2.777
same,"Fold Change, 60S ribosomal protein L24",[3]; Upper band,6.05
same,"Fold Change, 60S ribosomal protein L25",[3]; Upper band,2.713
same,"Fold Change, 60S ribosomal protein L27-A",[3]; Upper band,2.554
same,"Fold Change, 60S ribosomal protein L28",[3]; Upper band,1.804
